The test concerns primary CLL cells in the presence of HS5 stromal protection. In words: Viability of primary CLL cells in stromal co-culture (7AAD). Type of test: cell-based. As to conditions: Homo sapiens, CLL cell, 48 hours, read-out: decrease of viability. As for the experimental part:
Methods: Primary CLL B cells were isolated from the whole blood of consented patients by FICOLL density centrifugation and rosette-sep negative selection. Annexin V and propidium iodide flow cytometry was used to measure patient CLL cell viability and 7AAD was used to measure viability in stromal co-culture. CD40 and CD86 expression was evaluated via flow cytometry subsequent to sustained 3.2 μM CpG stimulation. BCR signaling in primary CLL cells was investigated by immunoblot succeeding 1 hour treatment and following 1 hour or 24 hours of incubation with Compound 1 in XLA cell lines. MTS values were read after 24 hours of drug incubation. ITK inhibition was investigated via immunoblot after stimulation with anti-CD3 and anti-CD28 and incubation with Compound 1 for 1 hour. Compound 1 was used at a concentration of 1 μM in preclinical studies unless otherwise noted.

The results in this text go back to US11174243B2, “Succinate forms and compositions of Bruton's tyrosine kinase inhibitors” (Sunesis Pharmaceuticals, Inc., priority 2016, dated 2021).

Structures are written as SMILES.

On to `NC(=O)[C@H]1CCN(c2ncnc(N)c2F)C[C@@H]1N1CCC[C@@H](Nc2cc(Cl)cc(C(F)(F)F)c2)C1=O` [Compound 1, (3R,3′R,4′S)-1′-(6-amino-5-fluoropyrimidin-4-yl)-3-((3-chloro-5-(trifluoromethyl)phenyl)amino)-2-oxo-[1,3′-bipiperidine]-4′-carboxamide], for which the cytotoxicity at 1 µM stood at 5.5%.
